Data from ChEMBL document CHEMBL1201862, “PubChem BioAssay data set” (2004).
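Exposure lasted 48 hours, with cells grown in 96-well plates and compounds tested at five concentrations. At the GI50, growth is halved.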 The source made the active and inactive calls. Cut-off read from the data, not from the text of the source: active = GI50 up to about 1.1 µM and inactive = higher.

How the values were obtained:
Assay in all cases: growth of human tumour cells (NCI), 48 h
786-0 = tested on: 786-0
A498 = tested on: A498
CAKI-1 = tested on: CAKI-1
HCT-116 = tested on: HCT-116
HOP-62 = tested on: HOP-62
HOP-92 = tested on: HOP-92
IGROV-1 = tested on: IGROV-1
MCF7 = tested on: MCF7
MOLT-4 = tested on: MOLT-4
NCI-H226 = tested on: NCI-H226
NCI-H23 = tested on: NCI-H23
NCI-H460 = tested on: NCI-H460
RXF 393 = tested on: RXF 393
SF-268 = tested on: SF-268
SF-295 = tested on: SF-295
SK-MEL-2 = tested on: SK-MEL-2
SN12C = tested on: SN12C
TK-10 = tested on: TK-10
UACC-62 = tested on: UACC-62
UO-31 = tested on: UO-31

SMILES | GI50 (786-0) | GI50 (A498) | GI50 (CAKI-1) | GI50 (HCT-116) | GI50 (HOP-62) | GI50 (HOP-92) | GI50 (IGROV-1) | GI50 (MCF7) | GI50 (MOLT-4) | GI50 (NCI-H226) | GI50 (NCI-H23) | GI50 (NCI-H460) | GI50 (RXF 393) | GI50 (SF-268) | GI50 (SF-295) | GI50 (SK-MEL-2) | GI50 (SN12C) | GI50 (TK-10) | GI50 (UACC-62) | GI50 (UO-31)
CCCCCCCCCCCC(=O)OC[C@H](C[As](=O)(O)O)OC(=O)CCCCCCCCCCC | 13.2 µM (inactive) | 6.31 µM (inactive) | 8.55 µM (inactive) | 8.89 µM (inactive) | 14.8 µM (inactive) | 1.75 µM (inactive) | 1.9 µM (inactive) | 8.75 µM (inactive) | 6.14 µM (inactive) | 14.8 µM (inactive) | 5.98 µM (inactive) | 4.79 µM (inactive) | 1.92 µM (inactive) | 8.13 µM (inactive) | 13.4 µM (inactive) | 2.68 µM (inactive) | 3.73 µM (inactive) | 3.87 µM (inactive) | 2.3 µM (inactive) | 16 µM (inactive)
COc1ccc(/C=N/NC(=O)c2ccc(O)c(CN(C)C)c2)cc1 | > 100 µM (inactive) | 18.2 µM (inactive) | > 100 µM (inactive) | > 100 µM (inactive) | > 100 µM (inactive) | 57 µM (inactive) | > 100 µM (inactive) | > 100 µM (inactive) | > 100 µM (inactive) | > 100 µM (inactive) | > 100 µM (inactive) | > 100 µM (inactive) | > 100 µM (inactive) | > 100 µM (inactive) | > 100 µM (inactive) | > 100 µM (inactive) | > 100 µM (inactive) | > 100 µM (inactive) | > 100 µM (inactive) | > 100 µM (inactive)
CC(C)CCCCCCCCCCCCC(=O)NCC(=O)NC1C(C)OC(Nc2ncnc3c2ncn3C)C(O)C1O (stereo unspecified) |  | 4.15 µM (inactive) | 0.805 µM (active) | 1.54 µM (inactive) | 2.21 µM (inactive) | 2.41 µM (inactive) | 2.94 µM (inactive) | > 100 µM (inactive) | > 100 µM (inactive) | 2.16 µM (inactive) | 9.42 µM (inactive) | 3.09 µM (inactive) | 2.89 µM (inactive) | 3.21 µM (inactive) | 6.4 µM (inactive) | 8.34 µM (inactive) | 3.5 µM (inactive) |  | 3.18 µM (inactive) | 1.9 µM (inactive)
CC(C)=CC(=O)OC1C2C(C)C(=O)OC2C(O)C(C)C2C=CC(=O)C21C (stereo unspecified) |  | 2.05 µM (inactive) | 3.24 µM (inactive) | 1.66 µM (inactive) | 8.02 µM (inactive) | 4.09 µM (inactive) | 3.33 µM (inactive) | 2.43 µM (inactive) | 1.23 µM (inactive) | 5.22 µM (inactive) | 2.71 µM (inactive) | 1.96 µM (inactive) | 1.28 µM (inactive) | 1.57 µM (inactive) | 6.14 µM (inactive) | 4.15 µM (inactive) | 3.69 µM (inactive) |  | 1.47 µM (inactive) | 6.03 µM (inactive)
CC(C)(C)[Si](C)(C)OCC1OC(n2cnc3c(N)ncnc32)C2OC(=S)OC12 (stereo unspecified) |  | 52.7 µM (inactive) | 41.3 µM (inactive) | 27.4 µM (inactive) | 36.7 µM (inactive) | 70.8 µM (inactive) | 25 µM (inactive) | 34.6 µM (inactive) | 16.1 µM (inactive) | 29.4 µM (inactive) | 21.8 µM (inactive) | 32.7 µM (inactive) | 43.9 µM (inactive) |  | 37.4 µM (inactive) | 26 µM (inactive) | 35.5 µM (inactive) | > 100 µM (inactive) | 23.8 µM (inactive) | 23.5 µM (inactive)
CC(=O)NC1C(OCc2ccccc2)OC(CO)C(O)C1OCC(=O)NC(C)C(=O)NC(CCC(=O)NCCCCCNc1c2ccccc2nc2cccc([N+](=O)[O-])c12)C(N)=O (stereo unspecified) | < 0.0001 µM (active) | < 0.0001 µM (active) | < 0.0001 µM (active) | < 0.0001 µM (active) | < 0.0001 µM (active) | < 0.0001 µM (active) | 0.00102 µM (active) | < 0.0001 µM (active) | < 0.0001 µM (active) | 0.000202 µM (active) | < 0.0001 µM (active) | < 0.0001 µM (active) | < 0.01 µM (active) | < 0.0001 µM (active) | < 0.0001 µM (active) | < 0.0001 µM (active) | < 0.0001 µM (active) | 0.023 µM (active) |  | < 0.01 µM (active)
C1CSCC2(COC2)CS1 |  | > 100 µM (inactive) |  | > 100 µM (inactive) |  | > 100 µM (inactive) |  | > 100 µM (inactive) | > 100 µM (inactive) | > 100 µM (inactive) | > 100 µM (inactive) | > 100 µM (inactive) | > 100 µM (inactive) | > 100 µM (inactive) | > 100 µM (inactive) |  | > 100 µM (inactive) | > 100 µM (inactive) |  | > 100 µM (inactive)
COc1cc(C(O)CCBr)c(OC)cc1C (stereo unspecified) | 8.32 µM (inactive) | > 64.6 µM (inactive) | 14.9 µM (inactive) | 3.93 µM (inactive) | 28.6 µM (inactive) | 23.6 µM (inactive) | 24.4 µM (inactive) | 4.37 µM (inactive) |  | 32.9 µM (inactive) | 14.3 µM (inactive) | 30.5 µM (inactive) | 37.2 µM (inactive) | 31.4 µM (inactive) | 36 µM (inactive) | 16 µM (inactive) | 16.4 µM (inactive) | > 66.8 µM (inactive) | 14.6 µM (inactive) | 26.3 µM (inactive)
Cc1ccc(S(=O)(=O)n2cc(-c3cc(C(F)(F)F)ccn3)c3cc(Br)ccc32)cc1 | 13.9 µM (inactive) | 18.2 µM (inactive) | 16.3 µM (inactive) | 14.5 µM (inactive) | 11.8 µM (inactive) | 13.7 µM (inactive) |  | 5.26 µM (inactive) | > 100 µM (inactive) | 19 µM (inactive) | 14.5 µM (inactive) | 36.5 µM (inactive) | 17.8 µM (inactive) | 27.4 µM (inactive) | 17.9 µM (inactive) | 3.07 µM (inactive) | 28.3 µM (inactive) | 18.7 µM (inactive) | 16.1 µM (inactive) | 11.2 µM (inactive)
CC1(C)CC(C2=NCCO2)CC(C)(C)N1 | > 100 µM (inactive) | > 100 µM (inactive) | > 100 µM (inactive) | > 100 µM (inactive) | > 100 µM (inactive) | > 100 µM (inactive) | > 100 µM (inactive) | 27.7 µM (inactive) | > 100 µM (inactive) | > 100 µM (inactive) | > 100 µM (inactive) |  | > 100 µM (inactive) | > 100 µM (inactive) | > 100 µM (inactive) | > 100 µM (inactive) | > 100 µM (inactive) | > 100 µM (inactive) | > 100 µM (inactive) | > 100 µM (inactive)
Cc1ccc2c(c1C)CC1(Cc3c(ccc4c3CCC4)C1=O)C2=O (stereo unspecified) | > 100 µM (inactive) | > 100 µM (inactive) | > 100 µM (inactive) | > 100 µM (inactive) |  | > 100 µM (inactive) | > 100 µM (inactive) | 21.9 µM (inactive) | > 100 µM (inactive) | > 100 µM (inactive) | > 100 µM (inactive) | > 100 µM (inactive) | > 100 µM (inactive) | > 100 µM (inactive) | > 100 µM (inactive) | > 100 µM (inactive) | > 100 µM (inactive) | > 100 µM (inactive) | > 100 µM (inactive) | > 100 µM (inactive)
CN1OC(=O)N(C)C1c1ccccc1 (stereo unspecified) |  | > 100 µM (inactive) |  | > 100 µM (inactive) | > 100 µM (inactive) | > 100 µM (inactive) | > 100 µM (inactive) | > 100 µM (inactive) | > 100 µM (inactive) | > 100 µM (inactive) | > 100 µM (inactive) | > 100 µM (inactive) | > 100 µM (inactive) | > 100 µM (inactive) | > 100 µM (inactive) | > 100 µM (inactive) | > 100 µM (inactive) |  | > 100 µM (inactive) | > 100 µM (inactive)
Cc1cccc(C2NC(=O)c3ccccc3N2)c1 (stereo unspecified) | 4.55 µM (inactive) | 6.4 µM (inactive) | 8.65 µM (inactive) | 3.28 µM (inactive) | 6.03 µM (inactive) | > 58.9 µM (inactive) | 4.62 µM (inactive) | 3.15 µM (inactive) | 1.8 µM (inactive) | 5.35 µM (inactive) | 5.11 µM (inactive) | 3.3 µM (inactive) | 4.44 µM (inactive) | 11.3 µM (inactive) | 2.88 µM (inactive) |  | 5.87 µM (inactive) | > 84.1 µM (inactive) | 6.24 µM (inactive) | > 26.4 µM (inactive)
CCCCCCCCCCCCCCCCCCNc1ccn(C2OC(COP(=O)(O)OCC3OC(n4cc(C)c(=O)[nH]c4=O)CC3O)C(O)C2O)c(=O)n1 (stereo unspecified) | 18 µM (inactive) | 24.8 µM (inactive) | 18.4 µM (inactive) | 17.1 µM (inactive) | 16.7 µM (inactive) | 29.9 µM (inactive) |  | 34.6 µM (inactive) | 10.6 µM (inactive) | 23.7 µM (inactive) | 15.2 µM (inactive) | 17.9 µM (inactive) | 12 µM (inactive) | 17.4 µM (inactive) | 18.7 µM (inactive) |  | 17.7 µM (inactive) | 5.68 µM (inactive) | 18.4 µM (inactive) | 18.5 µM (inactive)
Nc1cc(Cl)cc2cc(Cl)cnc12 | > 100 µM (inactive) | 49 µM (inactive) | > 100 µM (inactive) | > 100 µM (inactive) | > 100 µM (inactive) | 31.8 µM (inactive) | 93.1 µM (inactive) | > 100 µM (inactive) | 44.5 µM (inactive) | > 100 µM (inactive) | > 100 µM (inactive) | > 100 µM (inactive) | > 100 µM (inactive) | 82.6 µM (inactive) | > 100 µM (inactive) |  | > 100 µM (inactive) | > 100 µM (inactive) | 75.2 µM (inactive) | 34.8 µM (inactive)
